Counter-ions that a name gives are not always drawn.
These compounds were tested against human BACE1 (Homo sapiens, UniProt P56817) (assay: BACE-1 fluorescent kinetic assay (cleavage of peptide substrate WABC-6)). Settings: 10 nM enzyme, 25 μM substrate WABC-6, Na-Acetate pH 4.5, room temperature.
Type: biochemical
Protocol: Evaluation of BACE-1 Binding Affinity of Test Compounds
Fluorescent Kinetic Assay
Dilution and mixing steps: total reaction volume: 100 μL
100 μM substrate dilution in 1×PBS was prepared, and
Fluorescence Readings: Readings at λex 320 nm and λem 420 nm are taken every 40 sec for 30 min at room temperature and the linear slope for substrate cleavage rate (vi) determined.

human BACE1, sequence (P56817 46-501): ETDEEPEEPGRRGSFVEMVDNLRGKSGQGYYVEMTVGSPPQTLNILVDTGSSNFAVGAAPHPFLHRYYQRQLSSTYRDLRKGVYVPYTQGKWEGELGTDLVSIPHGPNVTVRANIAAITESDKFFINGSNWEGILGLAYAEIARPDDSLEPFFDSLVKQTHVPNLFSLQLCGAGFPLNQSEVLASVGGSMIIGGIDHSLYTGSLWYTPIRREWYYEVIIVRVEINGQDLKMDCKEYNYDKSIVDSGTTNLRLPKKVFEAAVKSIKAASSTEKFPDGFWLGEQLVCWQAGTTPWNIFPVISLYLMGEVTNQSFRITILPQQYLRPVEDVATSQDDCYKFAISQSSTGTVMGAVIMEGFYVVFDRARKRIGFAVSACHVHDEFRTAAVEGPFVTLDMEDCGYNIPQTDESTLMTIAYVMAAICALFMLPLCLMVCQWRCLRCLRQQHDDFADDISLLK

BACE 1 IC50 μM, D (D = >5.0 μM-0.10 = μM):
Nc1cccc(Cn2c(-c3ccc(NC(=O)c4ccccc4)cc3)ccc2-c2ccccc2Cl)n1 [Example 3, N-{4-[1-(6-Amino-pyridin-2-ylmethyl)-5-(2-chloro-phenyl)-1H-pyrrol-2-yl]-phenyl}-benzamide]
CCCCCCOc1ccc(-c2ccc(-c3ccccc3Cl)n2Cc2cccc(N)n2)cc1.Cl [Example 17, 6-[2-(2-Chloro-phenyl)-5-(4-hexyloxy-phenyl)-pyrrol-1-ylmethyl]-pyridin-2-ylamine hydrochloride]
Nc1cccc(Cn2c(-c3ccc(-c4ccccc4)cc3)ccc2-c2ccccc2Cl)n1 [Example 27, 6-[2-Biphenyl-4-yl-5-(2-chlorophenyl)pyrrol-1-ylmethyl]pyridin-2-ylamine]
Nc1cccc(Cn2c(-c3ccc(Oc4ccc(Br)cc4)cc3)ccc2-c2ccccc2Cl)n1 [Example 38, 6-[2-[4-(4-Bromophenoxy)phenyl]-5-(2-chlorophenyl)pyrrol-1-ylmethyl]pyridin-2-ylamine hydrochloride]
CCCCCOc1ccc(-c2ccc(-c3ccccc3Cl)n2Cc2ccc(OC)c(N)n2)cc1 [Example 40, 6-[2-(2-Chlorophenyl)-5-(4-pentyloxyphenyl)-pyrrol-1-ylmethyl]-3-methoxypyridin-2-ylamine hydrochloride]
CCCCCOc1ccc(-c2ccc(-c3ccccc3Cl)n2Cc2ccc(OC)c(NCCCO)n2)cc1 [Example 41, 3-{6-[2-(2-Chloro-phenyl)-5-(4-pentyloxy-phenyl)-pyrrol-1-ylmethyl]-3-methoxy-pyridin-2-ylamino}-propan-1-ol hydrochloride]
CCCCCOc1ccc(-c2ccc(-c3ccccc3Cl)n2Cc2ccc(O)c(N)n2)cc1 [Example 42A, 2-Amino-6-[2-(2-chlorophenyl)-5-(4-pentyloxyphenyl)pyrrol-1-ylmethyl]pyridin-3-ol hydrochloride]
CCCCCOc1ccc(-c2ccc(-c3ccccc3Cl)n2Cc2ccc(N)c(N)n2)cc1 [Example 42B, 6-[2-(2-Chlorophenyl)-5-(4-pentyloxyphenyl)pyrrol-1-ylmethyl]pyridine-2,3-diamine hydrochloride]
CCCCCOc1ccc(-c2ccc(-c3ccccc3Cl)n2Cc2ccc(OCCCO)c(N)n2)cc1 [Example 43A, 3-{(2-Amino-6-[2-(2-chlorophenyl)-5-(4-pentyloxyphenyl)pyrrol-1-ylmethyl]pyridin-3-yloxy}propan-1-ol hydrochloride]

IC50, 110 to 1000 nM:
Nc1cccc(Cn2c(-c3ccc(-c4cncnc4)cc3)ccc2-c2ccccc2Cl)n1 [Example 29, 6-[2-(2-Chloro-phenyl)-5-(4-pyrimidin-5-yl-phenyl)-pyrrol-1-ylmethyl]-pyridin-2-ylamine]
Nc1cccc(Cn2c(-c3ccc(Oc4nccs4)cc3)ccc2-c2ccccc2Cl)n1 [Example 32, 6-{2-(2-Chloro-phenyl)-5-[4-(thiazol-2-yloxy)-phenyl]-pyrrol-1-ylmethyl}-pyridin-2-ylamine hydrochloride]
CC(=O)c1ccc(Oc2ccc(-c3ccc(-c4ccccc4Cl)n3Cc3cccc(N)n3)cc2)cc1 [Example 37, 1-(4-{4-[1-(6-Aminopyridin-2-ylmethyl)-5-(2-chlorophenyl)-1H-pyrrol-2-yl]phenoxy}-phenyl)ethanone hydrochloride]

IC50, 1100 to 5000 nM:
Nc1cccc(Cn2c(-c3ccc(Oc4ncccn4)cc3)ccc2-c2ccccc2Cl)n1 [Example 31, 6-{2-(2-Chloro-phenyl)-5-[4-(Pyrimidin-2-yloxy)-phenyl]-pyrrol-1-ylmethyl}-pyridin-2-ylamine hydrochloride]
